How the values were obtained:
Cavia porcellus [1] = assay: Induction of bronchodilation in ovalbumin-sensitized guinea pig at 10 mg/kg, po administered 1 hr prior to ovalbumin challenge measured for 20 mins relative to vehicle-treated control; format: functional
Mus musculus = assay: Inhibition of eosinophil infiltration in ovalbumin-sensitized mouse at 10 mg/kg, po qd for 2 days administered 30 mins prior to ovalbumin challenge relative to vehicle-treated control; format: functional
Cavia porcellus [2] = species: Cavia porcellus; assay: Inhibition of Hartley guinea pig PDE4 assessed as hydrolization of cAMP by measuring [3H]cAMP at 100 nM by radioisotope method
[3] = Drug level in ovalbumin-sensitized guinea pig plasma assessed as radioactivity at 10 mg/kg, po after 4 hrs; format: ADME, organism-based, Cavia porcellus; set-up: dose 10 mg/kg, route oral; details: in vivo
[4] = Drug level in ovalbumin-sensitized guinea pig plasma assessed as radioactivity at 10 mg/kg, po after 2 hrs; format: ADME, organism-based, Cavia porcellus; set-up: dose 10 mg/kg, route oral; details: in vivo
Cavia porcellus [5] = species: Cavia porcellus; assay: Inhibition of immediate asthmatic response in ovalbumin-sensitized guinea pig; format: functional
Cavia porcellus [6] = species: Cavia porcellus; assay: Inhibition of late asthmatic response in ovalbumin-sensitized guinea pig; format: functional
[7] = Drug level in ovalbumin-sensitized guinea pig brain assessed as radioactivity at 10 mg/kg, po after 2 hrs; format: ADME, organism-based, Cavia porcellus; set-up: dose 10 mg/kg, route oral; details: in vivo
Mustela putorius furo [8] = assay: Toxicity in Marshall ferret assessed as vomiting at 300 mg/kg, po after 2 hrs; format: organism-based; set-up: dose 300 mg/kg, route oral; details: in vivo
[9] = Drug level in ovalbumin-sensitized guinea pig lung assessed as radioactivity at 10 mg/kg, po after 0.5 hrs; format: ADME, organism-based, Cavia porcellus; set-up: dose 10 mg/kg, route oral; details: in vivo
[10] = Drug level in ovalbumin-sensitized guinea pig plasma assessed as radioactivity at 10 mg/kg, po after 0.5 hrs; format: ADME, organism-based, Cavia porcellus; set-up: dose 10 mg/kg, route oral; details: in vivo
[11] = Inhibition of Hartley guinea pig PDE4 assessed as hydrolization by radioisotope method; set-up: species or system Cavia porcellus
Phosphodiesterase 4 = Phosphodiesterase 4 (Homo sapiens, UniProt P27815+Q08499+Q07343+Q08493); assay: Inhibition of human PDE4; format: protein assay
Mustela putorius furo [12] = assay: Toxicity in Marshall ferret assessed as vomiting at 30 mg/kg, po after 2 hrs; format: organism-based; set-up: dose 30 mg/kg, route oral; details: in vivo
[13] = Drug level in ovalbumin-sensitized guinea pig lung assessed as radioactivity at 10 mg/kg, po after 2 hrs; format: ADME, organism-based, Cavia porcellus; set-up: dose 10 mg/kg, route oral; details: in vivo
Cavia porcellus [14] = assay: Induction of bronchodilation in ovalbumin-sensitized guinea pig at 10 mg/kg, po administered 4 hrs prior to ovalbumin challenge measured for 20 mins relative to vehicle-treated control; format: functional
[15] = Drug level in ovalbumin-sensitized guinea pig lung treated with [14C]-2-(3-chlorophenoxy)-3-[3-(3-hydroxypyridin-4-yl)propoxy]pyridine at 10 mg/kg, po after 2 hrs; format: ADME, organism-based, Cavia porcellus; set-up: dose 10 mg/kg, route oral; details: in vivo
[16] = Drug level in ovalbumin-sensitized guinea pig trachea assessed as radioactivity at 10 mg/kg, po after 4 hrs; format: ADME, organism-based, Cavia porcellus; set-up: dose 10 mg/kg, route oral; details: in vivo
[17] = Drug level in ovalbumin-sensitized guinea pig trachea assessed as radioactivity at 10 mg/kg, po after 0.5 hrs; format: ADME, organism-based, Cavia porcellus; set-up: dose 10 mg/kg, route oral; details: in vivo
[18] = Drug level in ovalbumin-sensitized guinea pig brain assessed as radioactivity at 10 mg/kg, po after 0.5 hrs; format: ADME, organism-based, Cavia porcellus; set-up: dose 10 mg/kg, route oral; details: in vivo
[19] = Drug level in ovalbumin-sensitized guinea pig trachea assessed as radioactivity at 10 mg/kg, po after 2 hrs; format: ADME, organism-based, Cavia porcellus; set-up: dose 10 mg/kg, route oral; details: in vivo
[20] = Drug level in ovalbumin-sensitized guinea pig lung treated with [14C]-2-(3-chlorophenoxy)-3-[3-(3-hydroxypyridin-4-yl)propoxy]pyridine at 10 mg/kg, po after 4 hrs; format: ADME, organism-based, Cavia porcellus; set-up: dose 10 mg/kg, route oral; details: in vivo
Mustela putorius furo [21] = assay: Toxicity in Marshall ferret assessed as vomiting at 10 mg/kg, po after 2 hrs; format: organism-based; set-up: dose 10 mg/kg, route oral; details: in vivo
[22] = Inhibition of bovine PDE3; set-up: species or system Bos taurus
[23] = Drug level in ovalbumin-sensitized guinea pig plasma treated with [14C]-2-(3-chlorophenoxy)-3-[3-(3-hydroxypyridin-4-yl)propoxy]pyridine at 10 mg/kg, po after 0.5 hrs; format: ADME, organism-based, Cavia porcellus; set-up: dose 10 mg/kg, route oral; details: in vivo
[24] = Drug level in ovalbumin-sensitized guinea pig lung assessed as radioactivity at 10 mg/kg, po after 4 hrs; format: ADME, organism-based, Cavia porcellus; set-up: dose 10 mg/kg, route oral; details: in vivo
[25] = Drug level in ovalbumin-sensitized guinea pig trachea treated with [14C]-2-(3-chlorophenoxy)-3-[3-(3-hydroxypyridin-4-yl)propoxy]pyridine at 10 mg/kg, po after 0.5 hrs; format: ADME, organism-based, Cavia porcellus; set-up: dose 10 mg/kg, route oral; details: in vivo
[26] = Drug level in ovalbumin-sensitized guinea pig lung treated with [14C]-2-(3-chlorophenoxy)-3-[3-(3-hydroxypyridin-4-yl)propoxy]pyridine at 10 mg/kg, po after 0.5 hrs; format: ADME, organism-based, Cavia porcellus; set-up: dose 10 mg/kg, route oral; details: in vivo
[27] = Drug level in ovalbumin-sensitized guinea pig brain assessed as radioactivity at 10 mg/kg, po after 4 hrs; format: ADME, organism-based, Cavia porcellus; set-up: dose 10 mg/kg, route oral; details: in vivo
Mustela putorius furo [28] = assay: Toxicity in Marshall ferret assessed as vomiting at 1 mg/kg, po after 2 hrs; format: organism-based; set-up: dose 1 mg/kg, route oral; details: in vivo
Mustela putorius furo [29] = assay: Toxicity in po dosed Marshall ferret assessed as vomiting; format: organism-based; details: in vivo
[30] = Drug level in ovalbumin-sensitized guinea pig trachea treated with [14C]-2-(3-chlorophenoxy)-3-[3-(3-hydroxypyridin-4-yl)propoxy]pyridine at 10 mg/kg, po after 2 hrs; format: ADME, organism-based, Cavia porcellus; set-up: dose 10 mg/kg, route oral; details: in vivo
[31] = Drug level in ovalbumin-sensitized guinea pig trachea treated with [14C]-2-(3-chlorophenoxy)-3-[3-(3-hydroxypyridin-4-yl)propoxy]pyridine at 10 mg/kg, po after 4 hrs; format: ADME, organism-based, Cavia porcellus; set-up: dose 10 mg/kg, route oral; details: in vivo
[32] = Drug level in ovalbumin-sensitized guinea pig plasma treated with [14C]-2-(3-chlorophenoxy)-3-[3-(3-hydroxypyridin-4-yl)propoxy]pyridine at 10 mg/kg, po after 4 hrs; format: ADME, organism-based, Cavia porcellus; set-up: dose 10 mg/kg, route oral; details: in vivo
[33] = Drug level in ovalbumin-sensitized guinea pig plasma treated with [14C]-2-(3-chlorophenoxy)-3-[3-(3-hydroxypyridin-4-yl)propoxy]pyridine at 10 mg/kg, po after 2 hrs; format: ADME, organism-based, Cavia porcellus; set-up: dose 10 mg/kg, route oral; details: in vivo

Structure (SMILES): Oc1cnccc1CCCOc1cccnc1Sc1cccc(Br)c1
- Activity (Cavia porcellus [1]): 8%
- inhibition in vivo at 10 mg/kg (Mus musculus): 33%
- inhibition (Cavia porcellus [2]): 66%

Structure (SMILES): Oc1cnccc1CCCOc1cccnc1Oc1cccc(Cl)c1
- Cp [3]: 346.2 ngequiv/ml
- Cp [4]: 452.8 ngequiv/ml
- inhibition (INH) (Cavia porcellus [5]): 45%
- inhibition (INH) (Cavia porcellus [6]): 40%
- Activity (Cavia porcellus [1]): 55%
- Drug uptake [7]: 17.7 ngequiv/g
- Activity (Mustela putorius furo [8]): Non-toxic
- Drug uptake [9]: 251.2 ngequiv/g
- Cp [10]: 387.6 ngequiv/ml
- IC50 [11]: 38 nM
- IC50 (Phosphodiesterase 4): 33 nM
- Activity (Mustela putorius furo [12]): Non-toxic
- Drug uptake [13]: 232.9 ngequiv/g
- Activity (Cavia porcellus [14]): 45%
- Drug uptake [15]: 12.8 ngequiv/g
- Drug uptake [16]: 90.1 ngequiv/g
- Drug uptake [17]: 142.1 ngequiv/g
- Drug uptake [18]: 31.9 ngequiv/g
- Drug uptake [19]: 85.1 ngequiv/g
- Drug uptake [20]: 7.7 ngequiv/g
- Activity (Mustela putorius furo [21]): Non-toxic
- IC50 [22]: > 30000 nM
- inhibition (Cavia porcellus [2]): 75%
- Cp [23]: 1.7 ngequiv/ml
- Drug uptake [24]: 178.7 ngequiv/g
- Drug uptake [25]: 14.4 ngequiv/g
- Drug uptake [26]: 21 ngequiv/g
- Drug uptake [27]: 14.5 ngequiv/g

Structure (SMILES): COc1ccc(C2CNC(=O)C2)cc1OC1CCCC1 (centres undefined) [ROLIPRAM]
- Activity (Cavia porcellus [1]): 50%
- Activity (Cavia porcellus [14]): 13%
- Activity (Mustela putorius furo [21]): Toxic
- inhibition (Cavia porcellus [2]): 54%
- Activity (Mustela putorius furo [28]): Non-toxic
- Activity (Mustela putorius furo [29]): Dose-dependent effect

Structure (SMILES): Brc1cccc(Cc2ncccc2OCCCc2ccncc2)c1
- Activity (Cavia porcellus [1]): 63%
- inhibition in vivo at 10 mg/kg (Mus musculus): 43%
- inhibition (Cavia porcellus [2]): 89%

Structure (SMILES): O=C(c1cccc(Br)c1)c1ncccc1OCCCc1ccncc1
- inhibition (Cavia porcellus [2]): 27%

Structure (SMILES): O=C(O)[C@H]1O[C@@H](Oc2cnccc2CCCOc2cccnc2Oc2cccc(Cl)c2)[C@H](O)[C@@H](O)[C@@H]1O
- Drug uptake [30]: 33.7 ngequiv/g
- Drug uptake [31]: 28.1 ngequiv/g
- Cp [32]: 79.3 ngequiv/ml
- IC50 [11]: 11500 nM
- Cp [33]: 130.8 ngequiv/ml
- Drug uptake [15]: 59.5 ngequiv/g
- Drug uptake [20]: 33.8 ngequiv/g
- Cp [23]: 130.4 ngequiv/ml
- Drug uptake [25]: 53.6 ngequiv/g
- Drug uptake [26]: 46.5 ngequiv/g

Structure (SMILES): O=S(=O)(O)Oc1cnccc1CCCOc1cccnc1Oc1cccc(Cl)c1
- Drug uptake [30]: 34.4 ngequiv/g
- Drug uptake [31]: 44 ngequiv/g
- Cp [32]: 194.4 ngequiv/ml
- IC50 [11]: 837 nM
- Cp [33]: 219.2 ngequiv/ml
- Drug uptake [15]: 78.9 ngequiv/g
- Drug uptake [20]: 79.9 ngequiv/g
- Cp [23]: 43.8 ngequiv/ml
- Drug uptake [25]: 17.2 ngequiv/g
- Drug uptake [26]: 29.2 ngequiv/g

Structure (SMILES): Oc1cnccc1CCCOc1cccnc1Oc1ccccc1Cl
- inhibition (Cavia porcellus [2]): 30%

Structure (SMILES): Oc1cnccc1CCCOc1cccnc1Cc1cccc(Br)c1
- Activity (Cavia porcellus [1]): 13%
- inhibition in vivo at 10 mg/kg (Mus musculus): 44%
- inhibition (Cavia porcellus [2]): 87%

Structure (SMILES): Oc1cnccc1CCCOc1cccnc1Oc1cccc(F)c1
- Activity (Cavia porcellus [1]): 55%
- Activity (Cavia porcellus [14]): 9%
- inhibition (Cavia porcellus [2]): 74%

Structure (SMILES): Brc1cccc(Nc2ncccc2OCCCc2ccncc2)c1
- inhibition (Cavia porcellus [2]): 51%

Structure (SMILES): Brc1cccc(Sc2ncccc2OCCCc2ccncc2)c1
- Activity (Cavia porcellus [1]): 77%
- Activity (Mustela putorius furo [12]): Toxic
- inhibition in vivo at 10 mg/kg (Mus musculus): 50%
- inhibition (Cavia porcellus [2]): 80%
- Activity (Mustela putorius furo [29]): Dose-dependent effect

Structure (SMILES): Oc1cnccc1CCCOc1cccnc1Oc1cccc(Br)c1
- Activity (Cavia porcellus [1]): 70%
- Activity (Mustela putorius furo [12]): Non-toxic
- Activity (Cavia porcellus [14]): 12%
- inhibition in vivo at 10 mg/kg (Mus musculus): 50%
- inhibition (Cavia porcellus [2]): 77%

Structure (SMILES): Oc1cnccc1CCCOc1cccnc1Oc1ccc(Cl)cc1
- inhibition (Cavia porcellus [2]): 46%

Structure (SMILES): Oc1cnccc1CCCOc1cccnc1Oc1cc(Cl)cc(Cl)c1
- inhibition (Cavia porcellus [2]): 6%

Structure (SMILES): Brc1cccc(Oc2ncccc2OCCCc2ccncc2)c1
- Activity (Cavia porcellus [1]): 49%
- inhibition in vivo at 10 mg/kg (Mus musculus): 23%
- inhibition (Cavia porcellus [2]): 80%
